Paper PMC3142157, “Sensitive and Specific Fluorescent Probes for Functional Analysis of the Three Major Types of Mammalian ABC Transporters” (PLoS ONE, 2011)

What was measured:
[1] = test system: HeLa cells; assay: Dye uptake flow cytometry MDR assay (MAF), HeLa cells; type: cell-based, human; details: dye uptake protocol; for MAF value, Fumitremorgin C: probe with vs without fumitremorgin C; for MAF value, Probenecid: probe with vs without probenecid; for MAF value, Verapamil: probe with vs without verapamil
Protocol: (§1) Detailed protocol for the MDR assay is available in the Instruction Manual for eFluxx-ID® Green or Gold Multi-Drug Resistance Assay Kit (ENZO Life Sciences, Inc., Farmingdale, NY). Briefly, on the day of the assay, cells were collected, washed with PBS and incubated with or without MDR inhibitors in the presence of the eFluxx-ID® Green or Gold probes for 30 min at 37°C and analyzed immediately by flow cytometry. eFluxx-ID® Green or Gold probes are novel xanthene-based small molecule dyes developed for the detection of MDR activity in living cells. In order to exclude dead cells in the analyses, propidium iodide (PI) or 7-actinaminomycin D (7-AAD) solution was added to the cells during the last 5 min of incubation in some experiments.
(§2) To develop a minimal step assay procedure for the dye uptake protocol, three modifications of the protocol were investigated. One set of the cells was treated according to a general “no-wash” protocol (see Instruction Manual for the kit). In the second set of tubes, the reaction was stopped by rapid centrifugation (1 min) at relatively low speed (200×g). After washing with ice-cold PBS and discarding the supernatant, cells were re-suspended in 0.5 ml of ice-cold medium and kept on ice until flow cytometry analysis was performed. The third set of cells was simply spun down (1 min, 200×g) to remove the excess probe, resuspended in ice-cold medium and kept on ice until flow cytometry analysis was performed. eFluxx-ID® Green dye (ex/em 490/514 nm) fluorescence intensity was measured in the FL1/FITC (530/30 filter) channel, and eFluxx-ID® Gold dye (ex/em 530/555 nm) fluorescence intensity was monitored in the FL2/PE (585/42 filter) channel.
(§3) Experiments were performed using a FACS Calibur benchtop flow cytometer (BD Biosciences, San Jose, CA) equipped with a blue (488 nm) laser, and the signals were registered in the FITC (530/30 filter), PE (585/42 filter) and PerCP (670 LP filter) channels. eFluxx-ID® Green dye fluorescence was measured in the FL1/FITC channel, and eFluxx-ID® Gold dye fluorescence, in the FL2/PE channel. Data analysis was performed using FlowJo 8.8.2 software (Tree Star, Inc., Ashland, OR).
(§4) All of the experiments were performed at least three times. Results were expressed as mean ± S.E. Statistical comparisons were made using an unpaired two-tailed Student's t-test. A P value of <0.05 was considered significant. Flow cytometry data were analyzed by comparison of median fluorescence, by using Kolmogorov-Smirnov statistics (D-value) or by calculating MDR Activity Factor (MAF) values using the following formula: MAF = 100*((MFIinh−MFI0)/MFIinh), wherein MFIinh and MFI0 are the mean fluorescence intensity values measured in the presence and absence of inhibitor [7].

[2] = test system: HepG2 cells; assay: Dye uptake flow cytometry MDR assay (MAF), HepG2 cells; type: cell-based, human; details: for MAF value, CsA: probe with vs without CsA; for MAF value, CsA / MAF value, Nov / MAF value, Ver: mean ± SEM; for MAF value, MK571: probe with vs without MK571, mean ± SEM; for MAF value, Nov: probe with vs without Nov; for MAF value, Ver: probe with vs without Ver
Protocol: (§5) Detailed protocol for the MDR assay is available in the Instruction Manual for eFluxx-ID® Green or Gold Multi-Drug Resistance Assay Kit (ENZO Life Sciences, Inc., Farmingdale, NY). […] In order to exclude dead cells in the analyses, propidium iodide (PI) or 7-actinaminomycin D (7-AAD) solution was added to the cells during the last 5 min of incubation in some experiments. Experiments were performed using a FACS Calibur benchtop flow cytometer (BD Biosciences, San Jose, CA) equipped with a blue (488 nm) laser, and the signals were registered in the FITC (530/30 filter), PE (585/42 filter) and PerCP (670 LP filter) channels. eFluxx-ID® Green dye fluorescence was measured in the FL1/FITC channel, and eFluxx-ID® Gold dye fluorescence, in the FL2/PE channel. Data analysis was performed using FlowJo 8.8.2 software (Tree Star, Inc., Ashland, OR). All of the experiments were performed at least three times. Results were expressed as mean ± S.E. Statistical comparisons were made using an unpaired two-tailed Student's t-test. […] Additionally, HCT-8 cell line reported to overexpress both MDR1 and MRP transporters, [21] was tested. HCT-8, HCT-15, HepG2, HL-60 and HL-60/MX1 cells were grown on tissue culture dishes and on the day of assay were incubated with eFluxx-ID® Green and Gold probes with and without inhibitors according to the described dye uptake protocol (Materials and Methods) and analyzed by flow cytometry.

[3] = test system: A549 cells; assay: Dye uptake flow cytometry MDR assay (MAF / D-values), A549 cells; type: cell-based, human; details: dye uptake protocol; for MAF value, Fumitremorgin C: probe with vs without fumitremorgin C; for MAF value, Probenecid: probe with vs without probenecid; for MAF value, Verapamil: probe with vs without verapamil
Protocol: as §1, §2, §3, §4

[4] = test system: CHO K1 cells; assay: Dye uptake flow cytometry MDR assay (MAF / D-values), CHO K1 cells; type: cell-based, hamster; details: for MAF value, Fumitremorgin C / MAF value, Probenecid / MAF value, Verapamil: CHO K1 cells, dye uptake protocol; for MAF value, Fumitremorgin C: probe with vs without fumitremorgin C; for MAF value, Probenecid: probe with vs without probenecid; for MAF value, Verapamil: probe with vs without verapamil; for D-values Post Inhibitor Treatment (compared to uninhibited cells), CsA / D-values Post Inhibitor Treatment (compared to uninhibited cells), FTC / D-values Post Inhibitor Treatment (compared to uninhibited cells), MK-571 / D-values Post Inhibitor Treatment (compared to uninhibited cells), Verapamil: CHO K1
Protocol: as §1, §2, §3, §4

[5] = test system: HCT-15 cells; assay: Dye uptake flow cytometry MDR assay (MAF), HCT-15 cells; type: cell-based, human; details: for MAF value, CsA: probe with vs without CsA; for MAF value, CsA / MAF value, Nov / MAF value, Ver: mean ± SEM; for MAF value, MK571: probe with vs without MK571, mean ± SEM; for MAF value, Nov: probe with vs without Nov; for MAF value, Ver: probe with vs without Ver
Protocol: as §5

[6] = test system: HL-60 cells; assay: Dye uptake flow cytometry MDR assay (MAF), HL-60 cells; type: cell-based, human; details: for MAF value, CsA: probe with vs without CsA; for MAF value, CsA / MAF value, Nov / MAF value, Ver: mean ± SEM; for MAF value, MK571: probe with vs without MK571, mean ± SEM; for MAF value, Nov: probe with vs without Nov; for MAF value, Ver: probe with vs without Ver
Protocol: as §5

[7] = test system: HL-60/MX1 cells; assay: Dye uptake flow cytometry MDR assay (MAF), HL-60/MX1 cells; type: cell-based, human; details: for MAF value, CsA: probe with vs without CsA; for MAF value, CsA / MAF value, Nov / MAF value, Ver: mean ± SEM; for MAF value, MK571: probe with vs without MK571, mean ± SEM; for MAF value, Nov: probe with vs without Nov; for MAF value, Ver: probe with vs without Ver
Protocol: as §5

[8] = test system: HCT-8 cells; assay: Dye uptake flow cytometry MDR assay (MAF), HCT-8 cells; type: cell-based, human; details: for MAF value, CsA: probe with vs without CsA; for MAF value, CsA / MAF value, Nov / MAF value, Ver: mean ± SEM; for MAF value, MK571: probe with vs without MK571, mean ± SEM; for MAF value, Nov: probe with vs without Nov; for MAF value, Ver: probe with vs without Ver
Protocol: as §5

[9] = dual probe treatment eFluxx-ID Gold + Pheophorbide A
[10] = dual probe treatment eFluxx-ID Green + Pheophorbide A
[11] = triple probe treatment CMFDA + eFluxx-ID Gold + Pheophorbide A
[12] = triple probe treatment DiOC2(3) + eFluxx-ID Gold + Pheophorbide A
[13] = dual probe treatment eFluxx-ID Gold + CMFDA
[14] = dual probe treatment eFluxx-ID Gold + DiOC2(3)

## Calcein AM
[1]
  MAF value, Fumitremorgin C: 0.2
  MAF value, Probenecid: 12.2
  MAF value, Verapamil: 13.0
[2]
  MAF value, CsA: 59.0±2.4
  MAF value, MK571: 40.7±4.5
  MAF value, Nov: 3.0±0.1
  MAF value, Ver: 22.0±2.9
[3]
  MAF value, Fumitremorgin C: 1.3
  MAF value, Probenecid: 19.5
  MAF value, Verapamil: 28.0
[4]
  MAF value, Fumitremorgin C: 6.4
  MAF value, Probenecid: 55.3
  MAF value, Verapamil: 63.9
[5]
  MAF value, CsA: 67.2±2.0
  MAF value, MK571: 13.5±2.9
  MAF value, Nov: 4.3±2.2
  MAF value, Ver: 62.9±2.6
[6]
  MAF value, CsA: 15.2±2.5
  MAF value, MK571: 8.0±1.7
  MAF value, Nov: 8.6±1.5
  MAF value, Ver: 2.5±1.1
[7]
  MAF value, CsA: 18.2±2.7
  MAF value, MK571: 10.8±1.8
  MAF value, Nov: 5.9±1.2
  MAF value, Ver: 1.6±0.3
[8]
  MAF value, CsA: 46.5±5.1
  MAF value, MK571: 31.1±4.7
  MAF value, Nov: 7.1±0.4
  MAF value, Ver: 25.9±0.9

## C=Cc1c(C)c2cc3nc(c4c5[nH]c(cc6nc(cc1[nH]2)C(C)=C6CC)c(C)c5C(=O)[C@@H]4C(=O)OC)[C@@H](CCC(=O)O)[C@@H]3C [Pheophorbide A, pheophorbide A]
[1]
  MAF value, Fumitremorgin C: 5.8
  MAF value, Probenecid: 0.5
  MAF value, Verapamil: 0
[3]
  MAF value, Fumitremorgin C: 36.0
  MAF value, Probenecid: 14.2
  MAF value, Verapamil: 4.0
[4]; [9]
  D-values Post Inhibitor Treatment (compared to uninhibited cells), CsA: 0.25
  D-values Post Inhibitor Treatment (compared to uninhibited cells), FTC: 0.34
  D-values Post Inhibitor Treatment (compared to uninhibited cells), MK-571: 0.14
  D-values Post Inhibitor Treatment (compared to uninhibited cells), Verapamil: 0.11
[4]; [10]
  D-values Post Inhibitor Treatment (compared to uninhibited cells), CsA: 0.25
  D-values Post Inhibitor Treatment (compared to uninhibited cells), FTC: 0.33
  D-values Post Inhibitor Treatment (compared to uninhibited cells), MK-571: 0.15
  D-values Post Inhibitor Treatment (compared to uninhibited cells), Verapamil: 0.14
[4]; [11]
  D-values Post Inhibitor Treatment (compared to uninhibited cells), CsA: 0.20
  D-values Post Inhibitor Treatment (compared to uninhibited cells), FTC: 0.27
  D-values Post Inhibitor Treatment (compared to uninhibited cells), MK-571: 0.09
  D-values Post Inhibitor Treatment (compared to uninhibited cells), Verapamil: 0.18
[4]; [12]
  D-values Post Inhibitor Treatment (compared to uninhibited cells), CsA: 0.4
  D-values Post Inhibitor Treatment (compared to uninhibited cells), FTC: 0.41
  D-values Post Inhibitor Treatment (compared to uninhibited cells), MK-571: 0.13
  D-values Post Inhibitor Treatment (compared to uninhibited cells), Verapamil: 0.17
[4]
  MAF value, Fumitremorgin C: 22.3
  MAF value, Probenecid: 8.4
  MAF value, Verapamil: 0.7
[6]
  MAF value, CsA: 6.5±1.7
  MAF value, MK571: 7.6±1.6
  MAF value, Nov: 8.5±1.4
  MAF value, Ver: 6.8±0.6
[7]
  MAF value, CsA: 22.5±3.0
  MAF value, MK571: 10.2±3.7
  MAF value, Nov: 23.4±0.8
  MAF value, Ver: 7.6±3.8

## CC(=O)Oc1ccc2c(c1)Oc1cc(OC(C)=O)ccc1C21OC(=O)c2cc(CCl)ccc21 [CMFDA, chloromethylfluorescein diacetate]
[1]
  MAF value, Fumitremorgin C: 11.4
  MAF value, Probenecid: 9.0
  MAF value, Verapamil: 7.6
[2]
  MAF value, CsA: 50.4±1.3
  MAF value, MK571: 52.2±3.8
  MAF value, Nov: 7.0±1.7
  MAF value, Ver: 12.8±1.3
[3]
  MAF value, Fumitremorgin C: 20.7
  MAF value, Probenecid: 27.1
  MAF value, Verapamil: 16.6
[4]; [13]
  D-values Post Inhibitor Treatment (compared to uninhibited cells), CsA: 0.49
  D-values Post Inhibitor Treatment (compared to uninhibited cells), FTC: 0.06
  D-values Post Inhibitor Treatment (compared to uninhibited cells), MK-571: 0.91
  D-values Post Inhibitor Treatment (compared to uninhibited cells), Verapamil: 0.1
[4]; [11]
  D-values Post Inhibitor Treatment (compared to uninhibited cells), CsA: 0.47
  D-values Post Inhibitor Treatment (compared to uninhibited cells), FTC: 0.14
  D-values Post Inhibitor Treatment (compared to uninhibited cells), MK-571: 0.89
  D-values Post Inhibitor Treatment (compared to uninhibited cells), Verapamil: 0.10
[4]
  MAF value, Fumitremorgin C: 0
  MAF value, Probenecid: 56.9
  MAF value, Verapamil: 34.3
[8]
  MAF value, CsA: 43.0±3.2
  MAF value, MK571: 39.2±3.6
  MAF value, Nov: 0
  MAF value, Ver: 21.2±3.2

## CCN1C(=CC=Cc2oc3ccccc3[n+]2CC)Oc2ccccc21.[I-] [DiOC2(3), 3,3′-diethyloxacarbocyanine iodide]
[1]
  MAF value, Fumitremorgin C: 0
  MAF value, Probenecid: 0
  MAF value, Verapamil: 0
[3]
  MAF value, Fumitremorgin C: 0.9
  MAF value, Probenecid: 1.0
  MAF value, Verapamil: 4.2
[4]; [14]
  D-values Post Inhibitor Treatment (compared to uninhibited cells), CsA: 0.94
  D-values Post Inhibitor Treatment (compared to uninhibited cells), FTC: 0.16
  D-values Post Inhibitor Treatment (compared to uninhibited cells), MK-571: 0.13
  D-values Post Inhibitor Treatment (compared to uninhibited cells), Verapamil: 0.96
[4]; [12]
  D-values Post Inhibitor Treatment (compared to uninhibited cells), CsA: 0.98
  D-values Post Inhibitor Treatment (compared to uninhibited cells), FTC: 0.11
  D-values Post Inhibitor Treatment (compared to uninhibited cells), MK-571: 0.13
  D-values Post Inhibitor Treatment (compared to uninhibited cells), Verapamil: 0.98
[4]
  MAF value, Fumitremorgin C: 0
  MAF value, Probenecid: 2.4
  MAF value, Verapamil: 86.6
[5]
  MAF value, CsA: 71.0±5.0
  MAF value, MK571: 4.3±2.2
  MAF value, Nov: 0
  MAF value, Ver: 69.3±4.3
[8]
  MAF value, CsA: 24.7±0.9
  MAF value, MK571: 9.8±1.2
  MAF value, Nov: 0
  MAF value, Ver: 19.1±3.7
